From patent US12365658B2, “Benzothia(di)azepine compounds and their use as bile acid modulators” (Albireo AB, priority 2021, dated 2025) come the findings set out here.

One series concerns the target T1, Human LBAT (Homo sapiens, UniProt Q14973).
T1 construct: expressed in transfected cells; kept under Geneticin selection
T1 sequence (Q14973 1-349): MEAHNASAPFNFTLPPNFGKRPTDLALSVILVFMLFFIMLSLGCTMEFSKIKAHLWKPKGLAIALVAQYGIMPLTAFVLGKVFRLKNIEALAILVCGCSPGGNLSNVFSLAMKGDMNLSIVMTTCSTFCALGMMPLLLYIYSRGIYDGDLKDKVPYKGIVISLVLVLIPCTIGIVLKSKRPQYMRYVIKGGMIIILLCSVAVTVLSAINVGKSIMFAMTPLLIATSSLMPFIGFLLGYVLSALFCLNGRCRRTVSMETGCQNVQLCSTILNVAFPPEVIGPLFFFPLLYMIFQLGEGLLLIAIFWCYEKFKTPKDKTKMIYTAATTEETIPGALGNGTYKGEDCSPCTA
The series is described as follows: LBAT (h/m) assay, human LBAT-overexpressing cells, 3H-taurocholic acid uptake. Particulars: 0.3 μM 3H-taurocholic acid and 7.5 μM cold taurocholic acid, 20 minutes, read-out: hLBAT IC50. The series is classed as cell-based. How it is done:
LBAT (h/m) Assay Protocol
20,000 cells (Human or Mouse LBAT-overexpressing cells) were seeded in 96-wells plate (Corning CLS3809) in 100 μL MEM-alpha medium (Gibco 12571-063) supplemented with 10% FBS (Gibco 10438026) containing Geneticin (Gibco 10131-027) (1 mg/mL) and incubated at 37° C. in 5% CO2 for 24 hours. After incubation, media was decanted from the wells and cells were washed two times with 300 μL of basal MEM-alpha medium (FBS-free). After decanting basal MEM-alpha medium each time, plates were tapped against paper towel to ensure maximum removal of residual media.
For human LBAT, incubation mix was prepared by adding test inhibitor dilutions (3-fold serial dilution in DMSO (Sigma D2650), 10 points) in MEM-alpha (without FBS) containing 0.3 μM 3H-taurocholic acid (ARC ART-1368) and 7.5 μM cold taurocholic acid (Sigma T4009) (maintaining 0.2% final DMSO concentration). For mouse LBAT, incubation mix was prepared by adding test inhibitor dilutions (3-fold serial dilution in DMSO, 10 points) in MEM-alpha (without FBS) containing 0.3 μM 3H-taurocholic acid and 25 μM cold taurocholic acid maintaining 0.2% final DMSO concentration).
50 μL of incubation mix containing test inhibitors was then added to the wells (in duplicate) and the plates were incubated for 20 minutes in a CO2 incubator at 37° C. After incubation, the reaction was stopped by keeping the plates on ice water mix for 2-3 minutes and then the incubation mix was aspirated completely from the wells. The wells were washed two times with 250 μL of chilled unlabelled 1 mM taurocholic acid dissolved in HEPES (Gibco 15630080)-buffered (10 mM) HBSS (Gibco 14175079) (pH 7.4). The plates were tapped against a paper towel after every wash to ensure maximum removal of blocking buffer.
100 μL of MicroScint-20 (PerkinElmer 6013621) was added to the wells and kept overnight at room temperature before reading the plates in TopCount NXT™ Microplate Scintillation and Luminescence Counter from PerkinElmer under 3H Test protocol (set at 120 seconds reading time per well, with normal plate orientation).
(§1) Preparation of Test Compound Dilutions
(§2) All test compounds were provided in powder form at room temperature. 10 mM DMSO stocks of the test compounds were prepared, aliquoted and stored at −20° C. From the 10 mM DMSO stock of the compounds, a 3-fold serial dilution in DMSO was prepared to get a total of 10 dilutions of the test compounds. 0.5 μL of this dilution in DMSO was added to 250 μL of FBS-free basal media containing 3H-taurocholic acid and cold taurocholic acid to prepare the incubation mixture.

The nature of the next series: Bioavailability studies. The settings on record: male, plasma; single intravenous dose 1 mg/kg and single oral dose 10 mg/kg; species per compound not given. The series is classed as in vivo, Male mice (C57BL/6 or CD1) or Wistar rats. How it is done: Male mice (C57BL/6 or CD1) or Wistar rats of 8-9 weeks old were used. For each test compound, two groups of 3 animals each were used. One group was administered a single intravenous dose of 1 mg/kg (vehicle 100% DMSO) through the tail vein and the other group was administered a single oral dose of 10 mg/kg through gavage needle. The group that was administered an oral dose was fasted overnight. Blood samples were collected after 0.083, 0.25, 0.5, 1, 2, 4, 6, 8 and 24 hours following intravenous administration, and after 0.25, 0.5, 1, 2, 4, 6, 8 and 24 hours following oral administration. Blood samples were taken from saphenous vein. 0.2% EDTA was used as the anticoagulant. The samples were analyzed by a discovery grade bioanalytical method developed for the estimation of test compound in plasma, using an LC-MS/MS system.

The next series concerns Caco-2 cells. The series is described as follows: Bidirectional permeability assay (Caco-2 cells). In kind it is in vitro ADME. The settings on record: 10 μM in FaSSIF buffer, 120 minutes. As for the experimental part: Bidirectional Permeability Assay (Caco-2 Cells)
Caco-2 cells (Evotec) were seeded at a density of 70,000 cells/well in Millicell® 24-well cell culture insert plates and maintained in an incubator (37° C., 5% CO2, 95% RH) for 21 days with media change on alternate days.
Stock solutions (10 mM) of the test compounds, atenolol (low permeability marker), propranolol (high permeability marker) and digoxin (substrate for P-gp transport pathway) were prepared in dimethylsulfoxide (DMSO). An intermediate stock solution (1 mM) was prepared by diluting 10 μL of 10 mM master stock solution with 90 μL of neat DMSO. A working stock solution (10 μM) was prepared by diluting 50 μL of 1 mM with 4950 μL of FaSSIF buffer. Post addition of compounds to the FaSSIF, samples were subjected to sonication for 2 hours, and centrifuged at 4000 RPM for 30 minutes at 37° C. The 4 mL of resultant supernatant was directly used in the assay. The final DMSO concentration in the transport experiments was 1%.
On the day of assay, Caco-2 monolayers were washed twice with transport buffer (HBSS, pH 7.4) and pre-incubated for 30 min (37° C., 5% CO2, 95% RH) in an incubator. The electrical resistance of the monolayers was measured with a Millicell®-ERS system. Monolayers with trans-epithelial electrical resistance (TEER) values greater than 350 ohm·cm^2 were selected for the assay.
The assay was conducted in absorptive direction (A2B) and secretory (B2A) directions. Transport experiments were initiated by addition of transport assay buffer (FaSSIF buffer prepared in HBSS) consisting of compounds to the donor compartment (apical chamber A-B; basolateral chamber B-A) in duplicate (n=2) wells. Drug free HBSS buffer (pH 7.4) containing 1% bovine serum albumin (BSA) was introduced to the receiver (A-B-basolateral; B-A-Apical) compartments. The volumes of apical and basolateral compartments were 0.4 and 0.8 mL, respectively. After adding dosing solution, plates were incubated in an incubator for 120 minutes at 37° C. After 120 minutes, donor and receiver samples were collected and matrix matched (1:1, 30 μL study sample+30 μL blank buffer) with the opposite buffer. Dosing samples matrix matched (1:1, 30 μL study sample+30 μL blank buffer) with the opposite buffer. Samples were processed by adding acetonitrile containing internal standard (60 μL study sample+200 μL acetonitrile containing internal standard-Tolbutamide, 500 ng/mL). Samples were vortexed and centrifuged at 4000 rpm for 10 minutes. The obtained supernatant (100 μL) was diluted with 100 μL of water and transferred to fresh 96 well plates. The concentration of compounds in the samples was analyzed by liquid chromatography tandem mass spectrometry (LC-MS/MS) method using discovery grade bio-analytical method, as applicable.
The mean apparent permeability (Papp, ×10^−6 cm/sec) of the test compounds, atenolol, propranolol and digoxin were calculated as follows:
where dq/dt=rate of transport (rate of transport of compound in the receiver compartment), C0=initial concentration in the donor compartment, A=surface area of the effective filter membrane.

A further series concerns the target T2, Human IBAT (Homo sapiens, UniProt Q12908).
T2 construct: expressed in transfected cells; kept under Puromycin selection
T2 sequence (Q12908 1-348): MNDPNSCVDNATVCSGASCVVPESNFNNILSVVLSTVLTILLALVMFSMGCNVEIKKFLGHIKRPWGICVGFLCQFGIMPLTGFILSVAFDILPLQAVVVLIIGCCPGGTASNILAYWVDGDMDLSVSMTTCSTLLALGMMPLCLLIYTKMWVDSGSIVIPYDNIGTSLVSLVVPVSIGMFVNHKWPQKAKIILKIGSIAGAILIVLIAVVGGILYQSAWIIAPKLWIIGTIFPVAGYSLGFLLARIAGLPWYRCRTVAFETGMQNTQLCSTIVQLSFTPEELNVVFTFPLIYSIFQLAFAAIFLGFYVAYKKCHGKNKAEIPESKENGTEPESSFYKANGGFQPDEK
The series can be described thus: IBAT (h/m) assay, human IBAT-overexpressing cells, 3H-taurocholic acid uptake. In kind it is cell-based. The settings on record: 0.25 μM 3H-taurocholic acid and 5 μM cold taurocholic acid, 20 minutes, highest test concentration 10 μM, read-out: hIBAT IC50. As for the experimental part:
IBAT (h/m) Assay Protocol
10,000 cells (Human or Mouse IBAT-overexpressing cells) were seeded in 96-wells plate (Corning CLS3809) in 200 μL MEM-alpha medium (Gibco 12571-063) supplemented with 10% FBS (Gibco 10438026) containing Puromycin (Gibco A1113803) (10 μg/mL) and incubated at 37° C. in 5% CO2 for 48 hours. After incubation, media was decanted from the wells and cells were washed two times with 300 μL of basal MEM-alpha medium (FBS-free). After decanting basal MEM-alpha medium each time, plates were tapped against paper towel to ensure maximum removal of residual media. Test inhibitor dilutions (highest test concentration being 10 μM, 3-fold serial dilution, 10 points) prepared in DMSO (Sigma D2650) were added in incubation mix (maintaining 0.2% final DMSO concentration) containing 0.25 μM 3H-taurocholic acid (ARC ART-1368) and 5 μM of cold taurocholic acid (Sigma T4009). 50 μL of incubation mix containing test inhibitors was then added to the wells (in duplicate) and the plates were incubated for 20 minutes in a CO2 incubator at 37° C. After incubation, the reaction was stopped by keeping the plates on ice water mix for 2-3 minutes and then the incubation mix was aspirated completely from the wells. The wells were washed two times with 250 μL of chilled unlabelled 1 mM taurocholic acid dissolved in HEPES (Gibco 15630080)-buffered (10 mM) HBSS (Gibco 14175079) (pH 7.4). The plates were tapped against a paper towel after every wash to ensure maximum removal of blocking buffer.
100 μL of MicroScint-20 (PerkinElmer 6013621) was added to the wells and kept overnight at room temperature before reading the plates in TopCount NXT™ Microplate Scintillation and Luminescence Counter from PerkinElmer under 3H Test protocol (set at 120 seconds reading time per well).
as §1, §2

As for `CCCCC1CN(c2ccc(F)cc2)c2cc(SC)c(OCC(C)(C)C(=O)O)cc2S(=O)(=O)N1C` (single isomer, unassigned) [14, enantiomer 2], at Human LBAT, the IC50 turned out to be 3 nM. Also, the bioavailability in the series “Bioavailability studies” is 100%. For the same compound, the “Permeability (Caco-2) Papp A2B” value with Caco-2 cells (absorptive direction (A2B)) stood at 12.2 ×10⁻⁶ cm/s. Also, in the series on Caco-2 cells (secretory direction (B2A)), the “Permeability (Caco-2) Papp B2A” value stood at 7.3 ×10⁻⁶ cm/s.

In the case of `CCCCC1CN(c2ccccc2)c2cc(SC)c(OCC(F)(F)C(=O)O)cc2S(=O)(=O)N1C` (stereo not drawn) [Example 20, 3-((3-butyl-2-methyl-7-(methylthio)-1,1-dioxido-5-phenyl-2,3,4,5-tetrahydro-1,2,5-benzothiadiazepin-8-yl)oxy)-2,2-difluoropropanoic acid], the IC50 is 1.1 nM on Human LBAT and 259 nM at Human IBAT.
